“Also recorded” adds a separate entry of the source. Read-outs that look alike come from different tables or passages of the source.

One assay has as its target T1, human plasma BChE (Homo sapiens, UniProt P06276).
T1 construct: was used as a source of BChE and was prepared from heparinized human blood; from tissue; host or cells: human plasma from heparinized human blood
As to the kind of experiment: biochemical. The conditions noted are these: for IC50: mean ± SEM of three independent measurements, each in triplicate, read-out: IC50, hBuChE ± SEM; for SI for hBuChE: ratio hAChE IC50/hBuChE IC50; for inhibition at 100 µM: tested at 100 µM compound concentration, read-out: % Inhibition hBuChE ± SEM. The class given is biochemical.

In assay [1] the target is T2, human recombinant AChE (Homo sapiens, UniProt P22303). Briefly: biochemical. The class given is biochemical. The following applies: for IC50: mean ± SEM of three independent measurements, each in triplicate, read-out: IC50, hAChE ± SEM; for inhibition at 100 µM: tested at 100 µM compound concentration, read-out: %Inhibition hAChE ± SEM.
T2 sequence (P22303 32-614): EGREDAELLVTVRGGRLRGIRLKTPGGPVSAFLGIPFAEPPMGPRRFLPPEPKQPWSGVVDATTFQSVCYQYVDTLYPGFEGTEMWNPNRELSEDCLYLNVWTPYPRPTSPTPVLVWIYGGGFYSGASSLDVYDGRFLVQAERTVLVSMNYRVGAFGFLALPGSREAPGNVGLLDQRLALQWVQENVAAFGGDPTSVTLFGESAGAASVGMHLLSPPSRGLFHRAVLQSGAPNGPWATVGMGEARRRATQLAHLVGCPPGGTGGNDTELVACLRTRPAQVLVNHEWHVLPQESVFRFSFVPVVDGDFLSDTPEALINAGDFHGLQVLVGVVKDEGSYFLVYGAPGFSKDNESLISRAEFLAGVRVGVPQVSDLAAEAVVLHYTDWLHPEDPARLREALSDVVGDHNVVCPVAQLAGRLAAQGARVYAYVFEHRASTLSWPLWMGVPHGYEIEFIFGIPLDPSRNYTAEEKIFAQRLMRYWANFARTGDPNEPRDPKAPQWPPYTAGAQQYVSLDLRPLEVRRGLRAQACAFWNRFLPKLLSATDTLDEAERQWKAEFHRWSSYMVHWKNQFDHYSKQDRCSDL
The target of assay [2] is POP (prolyloligopeptidase) (Homo sapiens, UniProt P48147). As to the kind of experiment: POP inhibition assay. The class given is biochemical. The following applies: bounds marked f: highest tested concentration due to low solubility in buffer; read-out: IC50, POP ± SEM. Here is the method: The previously applied procedure was used. Detailed description of the assay can be found in Supplementary Materials.
Sequence of POP (prolyloligopeptidase) (P48147 whole entry): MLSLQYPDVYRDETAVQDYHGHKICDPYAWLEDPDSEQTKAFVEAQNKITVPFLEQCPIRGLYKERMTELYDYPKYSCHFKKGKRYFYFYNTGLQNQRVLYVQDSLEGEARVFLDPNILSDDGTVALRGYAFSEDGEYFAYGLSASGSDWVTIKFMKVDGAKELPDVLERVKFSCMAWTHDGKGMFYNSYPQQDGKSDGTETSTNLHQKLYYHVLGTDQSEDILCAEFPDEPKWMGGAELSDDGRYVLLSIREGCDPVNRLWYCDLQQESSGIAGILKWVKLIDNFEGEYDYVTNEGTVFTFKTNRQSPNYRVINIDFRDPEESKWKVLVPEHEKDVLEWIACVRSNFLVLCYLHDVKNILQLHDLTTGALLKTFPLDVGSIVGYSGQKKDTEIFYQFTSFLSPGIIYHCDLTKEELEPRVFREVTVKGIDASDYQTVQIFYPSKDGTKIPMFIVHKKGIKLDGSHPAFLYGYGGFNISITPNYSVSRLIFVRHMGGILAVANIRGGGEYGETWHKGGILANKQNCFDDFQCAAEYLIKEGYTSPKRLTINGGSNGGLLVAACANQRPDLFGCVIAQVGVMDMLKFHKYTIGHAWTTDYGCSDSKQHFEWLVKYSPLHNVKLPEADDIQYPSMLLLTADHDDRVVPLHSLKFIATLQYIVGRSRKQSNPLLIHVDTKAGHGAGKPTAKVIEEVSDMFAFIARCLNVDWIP
POP (EC 3.4.21.26) was dissolved in phosphate-buffered saline (PBS; 0.01 M Na/K phosphate buffer, […]
The assay was performed in standard polystyrene 96-well microplates with a flat and clear bottom.
Stock solutions of tested compounds were prepared in DMSO (10 mM). Dilutions (10−3 to 10−7 M) were prepared from the stock solution with deionized H2O; the control was performed with the same DMSO concentration. POP substrate, (Z)-Gly-Pro-p-nitroanilide, was dissolved in 50% 1,4-dioxane (5 mM). For each reaction, PBS (170 μL), tested compound (5 μL), and POP (5 μL) were incubated for 5 min at 37 °C. Then, substrate (20 μL) was added, and the microplate was incubated for 30 min at 37 °C. The formation of p-nitroanilide, directly proportional to the POP activity, was measured […]
Synergy 2, BioTek Instruments, Winooski, VT). The inhibition potency of tested compounds was calculated by nonlinear regression analysis and was expressed as an IC50 value (concentration of inhibitor which causes 50% POP inhibition). […]

Assay [3] concerns the target T2, human recombinant AChE. Details: method as in PMID 32455879. The following applies: template alkaloids, Figure 1; read-out: IC50,hAChE; cited from earlier work.

T1 sequence (P06276 29-602): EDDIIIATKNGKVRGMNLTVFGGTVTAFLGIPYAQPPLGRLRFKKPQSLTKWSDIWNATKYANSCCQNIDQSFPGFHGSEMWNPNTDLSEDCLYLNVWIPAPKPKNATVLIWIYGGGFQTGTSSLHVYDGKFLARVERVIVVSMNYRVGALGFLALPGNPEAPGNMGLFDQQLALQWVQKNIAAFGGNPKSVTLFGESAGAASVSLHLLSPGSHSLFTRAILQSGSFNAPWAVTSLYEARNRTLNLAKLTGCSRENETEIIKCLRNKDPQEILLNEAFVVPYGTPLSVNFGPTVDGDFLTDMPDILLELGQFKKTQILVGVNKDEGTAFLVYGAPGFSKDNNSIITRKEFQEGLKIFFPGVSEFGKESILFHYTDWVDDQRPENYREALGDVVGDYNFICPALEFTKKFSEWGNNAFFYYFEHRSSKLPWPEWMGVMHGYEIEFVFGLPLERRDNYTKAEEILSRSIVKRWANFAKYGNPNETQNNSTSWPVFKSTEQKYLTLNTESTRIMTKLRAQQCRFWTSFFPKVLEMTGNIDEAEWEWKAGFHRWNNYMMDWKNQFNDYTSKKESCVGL

One may read the IC50 as the point on the concentration scale where inhibition reaches its midpoint. A word on the inhibition: it is the relative decrease from the control value, in per cent. For `CCOc1cc(CNCCc2ccccc2)ccc1OC` [Compound 18, N-(3-ethoxy-4-methoxybenzyl)-2-phenylethan-1-amine], at human plasma BChE, the IC50 turned out to be 41.1 ± 2.6 µM, the “SI for hBuChE” value was above 2 and the inhibition at 100 µM is 60 ± 1.6%. On human recombinant AChE [1], the IC50 is above 100 µM and the inhibition at 100 µM was found to be 0%.

In the case of `COc1ccc(CNCCc2ccc(O)cc2)cc1OCc1ccccc1` [Compound 2, N-(3-benzyloxy-4-methoxybenzyl)-2-(4-hydroxyphenyl)ethan-1-amine], at human plasma BChE, the IC50 is 0.29 ± 0.02 µM, the “SI for hBuChE” value is given as above 348 and the inhibition at 100 µM stood at 97.7 ± 0.5%. On human recombinant AChE [1], the IC50 was above 100 µM and the inhibition at 100 µM was 35.8 ± 1.2%. Besides, the IC50 in assay [2] was above 79 µM.

On to `CCOc1cc(CNCCc2ccc(O)cc2)ccc1OC` [Compound 15, N-(3-ethoxy-4-methoxybenzyl)-2-(4-hydroxyphenyl)ethan-1-amine], for which, at human plasma BChE, the IC50 came to 15.1 ± 2.34 µM, the “SI for hBuChE” value is listed as above 6 and the inhibition at 100 µM is 75.3 ± 0.6%. In addition, on human recombinant AChE [1], the IC50 was above 100 µM and the inhibition at 100 µM was determined as 25.8 ± 1.3%.

As to `CN(CCc1ccc(O)cc1)Cc1cc2c(cc1-c1cccc3c1N(C)CC3)OCO2` [carltonine B], the IC50 on human recombinant AChE [3] was above 100 µM.

On to `COc1ccc(CCNCc2ccc(OC)c(OCc3ccccc3)c2)cc1` [Compound 12, N-(3-benzyloxy-4-methoxybenzyl)-2-(4-methoxyphenyl)ethan-1-amine], for which, on human plasma BChE, the half-maximal inhibitory concentration (IC50) stood at 1.12 ± 0.11 µM, the “SI for hBuChE” value was above 89 and the inhibition at 100 µM came out at 94.6 ± 0.6%. In addition, at human recombinant AChE [1], the IC50 was above 100 µM and the inhibition at 100 µM is 0%.

`C=CCN(CCc1ccc(OC)cc1)Cc1ccc(OCc2ccccc2)c(OC)c1` [Compound 13, N-allyl-N-(4-benzyloxy-3-methoxybenzyl)-2-(4-methoxyphenyl)ethan-1-amine]: at human plasma BChE, the IC50 was 2.72 ± 0.5 µM, the “SI for hBuChE” value is on record as above 37 and the inhibition at 100 µM was 90.9 ± 1.5%. Also, at human recombinant AChE [1], the IC50 is above 100 µM and the inhibition at 100 µM was 32.7 ± 1.6%.

In the case of `C=CCOc1ccc(CCN(CC=C)Cc2ccc(OCc3ccccc3)c(OC)c2)cc1` [Compound 5, N-allyl-N-(4-benzyloxy-3-methoxybenzyl)-2-(4-allyloxyphenyl)ethan-1-amine], at human plasma BChE, the IC50 was above 100 µM and the inhibition at 100 µM is 38.9 ± 0.9%. Also, at human plasma BChE (screening at 100 µM), the “hBuChE inhibition potency (in words)” value was “no inhibition potency; also recorded: inactive”. Besides, at human recombinant AChE [1], the IC50 was above 100 µM and the inhibition at 100 µM stood at 3.4 ± 0.5%. Further, on human recombinant AChE [1] (screening at 100 µM), the “hAChE inhibition potency (in words)” value is “no inhibition potency”.

Consider `C=CCN(CCc1ccc(O)cc1)Cc1ccc(OC)c(OCc2ccccc2)c1` [Compound 4, N-allyl-N-(3-benzyloxy-4-methoxybenzyl)-2-(4-hydroxyphenyl)ethan-1-amine], for which the IC50 at human plasma BChE was 0.25 ± 0.01 µM; at human recombinant AChE [1], above 100 µM; in assay [2], above 79 µM. Moreover, the “SI for hBuChE” value on human plasma BChE was above 394. Moreover, the results for the inhibition at 100 µM at human plasma BChE and at human recombinant AChE [1] were 97.9 ± 0.6% and 45.2 ± 2.4%, respectively.

Take `C=CCN(CCc1ccc(O)cc1)Cc1ccc(OCc2ccccc2)c(OC)c1` [Compound 3, N-allyl-N-(4-benzyloxy-3-methoxybenzyl)-2-(4-hydroxyphenyl)ethan-1-amine]: at human plasma BChE, the 50% inhibitory concentration (IC50) came to 0.61 ± 0.04 µM, the “SI for hBuChE” value is given as above 163 and the inhibition at 100 µM turned out to be 96.8 ± 1.1%. Further, on human recombinant AChE [1], the IC50 is above 100 µM and the inhibition at 100 µM amounted to 20.8 ± 0.9%. Moreover, in assay [2], the IC50 is above 200 µM.

For the molecule `COc1cc(CN(C)CCc2ccc(O)cc2)c(-c2cccc3c2N(C)CC3)cc1OC` [carltonine A], the IC50 on human recombinant AChE [3] was above 100 µM.

Turning to `C=CCOc1ccc(CCN(CC=C)Cc2ccc(OC)c(OCC)c2)cc1` [Compound 17, N-allyl-N-(3-ethoxy-4-methoxybenzyl)-2-(4-allyloxyphenyl)ethan-1-amine], the IC50 on human plasma BChE is 9.89 ± 1.37 µM; on human recombinant AChE [1], above 100 µM. In addition, the values for the inhibition at 100 µM on human plasma BChE and on human recombinant AChE [1] were 77 ± 1% and 29.3 ± 3.9%, respectively.

For `COc1ccc(CNCCc2ccccc2)cc1OCc1ccccc1` [Compound 8, N-(3-benzyloxy-4-methoxybenzyl)-2-phenylethan-1-amine], on human plasma BChE, the IC50 stood at 1.1 ± 0.05 µM, the “SI for hBuChE” value is recorded as above 90 and the inhibition at 100 µM stood at 96.6 ± 0.4%. Besides, on human recombinant AChE [1], the IC50 is above 100 µM and the inhibition at 100 µM was 12.6 ± 0.5%.

For `COc1cc(CNCCc2ccc(O)cc2)ccc1OCc1ccccc1` [Compound 1, N-(4-benzyloxy-3-methoxybenzyl)-2-(4-hydroxyphenyl)ethan-1-amine], on human plasma BChE, the IC50 was 0.36 ± 0.03 µM, the “SI for hBuChE” value is above 277 and the inhibition at 100 µM worked out at 98.7 ± 0.3%. On human recombinant AChE [1], the half-inhibitory concentration (IC50) was above 100 µM and the inhibition at 100 µM came out at 30.4 ± 2.1%. In addition, the IC50 in assay [2] stood at 186 ± 14 µM.

For `C=CCN(CCc1ccccc1)Cc1ccc(OC)c(OCC)c1` [Compound 19, N-allyl-N-(3-ethoxy-4-methoxybenzyl)-2-phenylethan-1-amine], on human plasma BChE, the IC50 turned out to be 4.63 ± 0.48 µM, the “SI for hBuChE” value is above 22 and the inhibition at 100 µM was found to be 80.2 ± 0.2%. Moreover, at human recombinant AChE [1], the IC50 was above 100 µM and the inhibition at 100 µM stood at 5.9 ± 2.1%.

Regarding `C=CCN(CCc1ccccc1)Cc1ccc(OCc2ccccc2)c(OC)c1` [Compound 9, N-allyl-N-(4-benzyloxy-3-methoxybenzyl)-2-phenylethan-1-amine], at human plasma BChE, the IC50 came out at 5.19 ± 0.28 µM, the “SI for hBuChE” value is above 19 and the inhibition at 100 µM amounted to 74.9 ± 2.4%. For the same molecule, on human recombinant AChE [1], the IC50 was above 100 µM and the inhibition at 100 µM stood at 18.8 ± 1.9%.

`COc1ccc(CCNCc2ccc(OCc3ccccc3)c(OC)c2)cc1` [Compound 11, {[4-(benzyloxy)-3-methoxyphenyl]methyl}[2-(4-methoxyphenyl)ethyl]amine]: on human plasma BChE, the IC50 stood at 2.39 ± 0.27 µM, the “SI for hBuChE” value was above 41 and the inhibition at 100 µM is 93.5 ± 0.3%. At human recombinant AChE [1], the IC50 was above 100 µM and the inhibition at 100 µM was 27.9 ± 0.7%.

`CCOc1cc(CN(CCc2ccccc2)Cc2ccccc2)ccc1OC` [Compound 20, N-benzyl-N-(3-ethoxy-4-methoxybenzyl)-2-phenylethan-1-amine]: on human plasma BChE, the IC50 was found to be 0.69 ± 0.03 µM, the “SI for hBuChE” value was above 145 and the inhibition at 100 µM turned out to be 82.5 ± 1%. Also, on human recombinant AChE [1], the IC50 is above 100 µM and the inhibition at 100 µM worked out at 49.5 ± 0.8%.

`C=CCN(CCc1ccc(O)cc1)Cc1ccc(OC)c(OCC)c1` [Compound 16, N-allyl-N-(3-ethoxy-4-methoxybenzyl)-2-(4-hydroxyphenyl)ethan-1-amine]: at human plasma BChE, the IC50 is 1.21 ± 0.08 µM, the “SI for hBuChE” value is recorded as above 82 and the inhibition at 100 µM was 91.7 ± 0.4%. On human recombinant AChE [1], the IC50 is above 100 µM and the inhibition at 100 µM is 28.3 ± 1.1%.

As for `COc1cc(CNCCc2ccccc2)ccc1OCc1ccccc1` [Compound 7, N-(4-benzyloxy-3-methoxybenzyl)-2-phenylethan-1-amine], at human plasma BChE, the IC50 was found to be 1.28 ± 0.05 µM, the “SI for hBuChE” value is listed as above 78 and the inhibition at 100 µM worked out at 94.5 ± 0.9%. On human recombinant AChE [1], the IC50 was above 100 µM and the inhibition at 100 µM was 23.4 ± 2.5%.

For the molecule `C=CCN(CCc1ccccc1)Cc1ccc(OC)c(OCc2ccccc2)c1` [Compound 10, N-allyl-N-(3-benzyloxy-4-methoxybenzyl)-2-phenylethan-1-amine], at human plasma BChE, the IC50 stood at 1.17 ± 0.04 µM, the “SI for hBuChE” value came out at 18 and the inhibition at 100 µM came out at 92 ± 2.4%. Moreover, at human recombinant AChE [1], the IC50 came to 21.5 µM and the inhibition at 100 µM was 72.4 ± 1.1%.

As to `C=CCN(CCc1ccc(OC)cc1)Cc1ccc(OC)c(OCc2ccccc2)c1` [Compound 14, N-allyl-N-(3-benzyloxy-4-methoxybenzyl)-2-(4-methoxyphenyl)ethan-1-amine], on human plasma BChE, the IC50 is 0.38 ± 0.01 µM, the “SI for hBuChE” value amounted to 98 and the inhibition at 100 µM was determined as 95.8 ± 0.9%. In addition, on human recombinant AChE [1], the IC50 stood at 37.7 µM and the inhibition at 100 µM turned out to be 60.9 ± 0.4%.

These data come from article PMC8348983 (International Journal of Molecular Sciences, 2021).
